Laboratory results: patent publication US20190060410A1, “Pharmaceutical Formulation Comprising GLP-1 Analogue and Preparation Method Thereof” (Hangzhou Jiuyuan Gene Engineering Co., Ltd., priority 2015, published 2019)

Legend:
[1] = patients, combined with metformin (Nauck et al.); cited from earlier work
[2] = dissolution of liraglutide powder at different pHs; type: physicochemical
Protocol: Investigating the dissolution of liraglutide powder at different pHs
The appropriate amount of liraglutide powder was dissolved in the water for injection and the disodium hydrogen phosphate buffer at a different pH was added resulting in the dissolution shown in Table 1.

[3] = cited from earlier work
[4] = following subcutaneous injection; cited from earlier work

| Dissolution ([2]; 6 mg/ml liraglutide in water for injection) | Dissolution ([2]; 6 mg/ml liraglutide, 10 mM disodium hydrogen phosphate buffer (pH 7.00)) | Dissolution ([2]; 6 mg/ml liraglutide, 10 mM disodium hydrogen phosphate buffer (pH 7.50)) | Dissolution ([2]; 6 mg/ml liraglutide, 10 mM disodium hydrogen phosphate buffer (pH 8.00)) | Dissolution ([2]; 6 mg/ml liraglutide, 10 mM disodium hydrogen phosphate buffer (pH 8.15)) | Dissolution ([2]; 6 mg/ml liraglutide, 10 mM disodium hydrogen phosphate buffer (pH 8.50)) | Dissolution ([2]; 6 mg/ml liraglutide, 10 mM disodium hydrogen phosphate buffer (pH 9.00)) | dissolution of liraglutide powder ([2]; acidic and neutral conditions) | dissolution of liraglutide powder ([2]; alkaline conditions) | Compound | incidence of hypoglycemia [1] | reduction of systolic blood pressure ([3]; LEAD series clinical trials, patients) | patients who reported nausea ([3]; LEAD-2 and LEAD-3 clinical trials) [%] | plasma half-life [4] [h] |
| --- | --- | --- | --- | --- | --- | --- | --- | --- | --- | --- | --- | --- | --- |
|  |  |  |  |  |  |  |  |  | CCC1=C(C)CN(C(=O)NCCc2ccc(S(=O)(=O)NC(=O)N[C@H]3CC[C@H](C)CC3)cc2)C1=O [glimepiride] | 17% |  |  |  |
| insoluble | insoluble | colorless | colorless | colorless | colorless | colorless | didn't dissolve | readily dissolved | Arg^34, Lys^26 (N^ε-(γ-Glu (N^α-hexadecanoyl))) GLP-1 (7-37) [liraglutide] | less than 3% | 2.7-6.7 mmHg | < 10 | 13 |
